Experimental data from ChEMBL document CHEMBL3112428, “Biological evaluation of diazene derivatives as anti-tubercular compounds” (Eur J Med Chem, 2014).
≈ marks a conversion by molar mass, not a printed value.

System: Mycobacterium tuberculosis variant bovis
Experiment: Antituberculosis activity against Mycobacterium bovis AN5 expressing lux gene assessed as inhibition of bacterial replication after 6 days by luminometry analysis
Assay type: functional, organism-based
Settings: AN5, 144 h

Row | Structure (SMILES) | IC50
1 | O=C(/N=N/c1ccc([N+](=O)[O-])cc1)Nc1ccccc1 | 2.21 µg/mL (≈ 8.18 µM)
2 | O=C(/N=N/c1ccc(C(F)(F)F)cc1)Nc1ccccc1 | 1.05 µg/mL (≈ 3.58 µM)
3 | CCOC(=O)/N=N/C(=O)Nc1ccc(C)cc1 | 2.78 µg/mL (≈ 11.8 µM)
